These are literature values, as cited in US5830503A (Andrx Pharmaceuticals, Inc., priority 1996, dated 1998).

For the series the following is noted: as compared to intravenous administration; first pass effect.

`COc1ccc([C@@H]2Sc3ccccc3N(CCN(C)C)C(=O)[C@@H]2OC(C)=O)cc1` [diltiazem]: the absolute bioavailability result is “about 40%”.
